The record followed here is US20250145631A1, “HETEROCYCLIC COMPOUND ACTING ON G12D MUTANT KRAS PROTEIN” (Astellas Pharma Inc., priority 2022, published 2025).

pIC50: −log10 of the molar value.

Common to all, as to assay type: cell-based
Assay [1] deals with human G12D mutant KRAS-positive pancreatic cancer line AsPC-1. Kind of assay: Non-anchorage-dependent cell growth inhibitory effect, spheroid 3D culture (Test Example 3). Conditions: ASPC1, 144 h, AsPC-1 spheroid 3D culture, 6 days; for pIC50: CellTiter Glo 2.0, read-out: IC50 (non-anchorage-dependent cell growth inhibition); for inhibition at 10 µM: read-out: cell growth inhibition at the highest concentration evaluated. The method, then:
The non-anchorage-dependent cell growth inhibitory effect of test compounds was evaluated by spheroid 3D cell culture.
AsPC-1 cells were seeded on low-cell-adhesive round bottom 384-well plates (PrimeSurface: from Sumitomo Bakelite) at 20 μL (or […])/well to give 5×10^2 cells per well. As for the cell culture conditions, RPMI 1640 medium containing 10% fetal bovine serum was used in the presence of 5% CO2 at 37° C.
The next day, the test compounds (10 points or 6 points having final concentrations in the range of 10 μM to 0.3 nM) and DMSO, which was the solvent for the test compounds, as a negative control were diluted 500-fold (or 100-fold) with a fresh medium and were added at 20 μL (or […]) per well. After culturing in the presence of 5% C02 at 37° C. for 6 days, CellTiter Glo 2.0 (from Promega) was added at 20 μL per well. After stirring with a plate mixer (from FINEPCR) at normal temperature for 1 hour, the luminescent signals were measured with ARVO X3 (from PerkinElmer).
With the signaling value in treatment with DMSO taken as 100% and with the signaling value in the medium alone without cells taken as 0%, the 50% inhibitory concentration values (IC50) were calculated by Sigmoid-Emax nonlinear regression analysis. The calculated 50% inhibition represents the inhibition at the highest concentration evaluated (10 μM) for a compound that exceeds the concentration in the evaluation range.
(§1) In the tables presented below, Ex represents Example No. The IC50 of Ex. 13, Ex. 15, and Ex. 16 were calculated using the molecular weights as tetrahydrochloride, and the IC50 of Ex. 14 was calculated using the molecular weight as trihydrochloride.
On the technique in general: In ATP-based viability assays light output follows the ATP content of the culture.

The test system of assay [2] is phosphorylation of ERK (Thr202/Tyr204). Nature of the assay: ERK phosphorylation inhibitory effect by Cell ELISA in AsPC-1 cells (Test Example 2). Conditions: Homo sapiens, ASPC1, overnight treatment, Cell ELISA, read-out: IC50 (ERK phosphorylation inhibition). As for the experimental part: The ERK phosphorylation inhibitory effect of test compounds was evaluated by measuring phosphorylation of threonine 202 (Thr202) and tyrosine 204 (Tyr204) of ERK located downstream of the KRAS signal by Cell ELISA.
AsPC-1 cells were seeded on 384-well plates at 20 µL/well to give 2.0×10^4 cells per well. As for the cell culture conditions, RPMI 1640 medium containing 10% fetal bovine serum was used in the presence of 5% CO2 at 37° C.
The next day, the test compounds (10 points having final concentrations in the range of 10 μM to 0.3 nM), trametinib (MEK inhibitor) of a final concentration of […] as positive control and DMSO, which was the solvent for the test compounds, as negative control were diluted 500-fold with a fresh medium and were added at 20 μL per well. The cells were cultured overnight. After culturing, 30% glyoxal solution (40% glyoxal [from Nacalai Tesque]was diluted with PBS) was quickly added at 30 μL per well, and the plates were allowed to stand for 120 minutes at room temperature to thus immobilize the cells. Then, the plates were centrifuged to remove the supernatant (using a centrifugal dehydrator machine, the supernatant was removed by the same method hereinafter), and 0.10% Triton X-100-containing PBS was added at 20 μL per well. After allowing to stand for 10 minutes at room temperature, the supernatant was removed, and the same operation was further repeated. Next, 0.5% SDS-containing PBS was added at 20 μL per well, and after allowing to stand at room temperature for 30 minutes, the supernatant was removed. Subsequently, blocking solution (Intercept Blocking Buffer) was added at 20 μL per well, and the plates were allowed to stand for 1 hour at room temperature. The supernatant was removed, and an ERK (Thr202/Tyr204) phosphorylation antibody (Phospho-p44/42 MAPK (Erk 1/2) (Thr202/Tyr204) (D13.14.4E) XP Rabbit mAb; from Cell Signaling Technology) diluted 2,500-fold with blocking solution was added at 15 μL per well as a primary antibody. The plates were allowed to stand at 4° C. overnight.
The next day, the supernatant was removed. 0.05% Tween-20 (from Thermo Fisher Scientific)-containing PBS was added at 50 μL per well, and the supernatant was removed to thus wash each well. The washing was performed three times in total. After washing, Goat anti-Rabbit IgG H&L (IRDye 800CW) diluted 1,000-fold with blocking solution was added at 15 μL per well as a secondary antibody, and the plates were allowed to stand for 1 hour at room temperature. The supernatant was removed, and each well was washed three times with 0.05% Tween-20-containing PBS in the same manner as after the primary antibody reaction. After removing the supernatant, the plates were dried with air at room temperature for 3 hours or more, and the 800-nm fluorescent signals were measured with Aerius.
With the signaling value at the time of addition of DMSO taken as 100% and with the signaling value at the time of addition of […] trametinib taken as 0%, the 50% inhibitory concentration values (IC50) were calculated by Sigmoid-Emax nonlinear regression analysis. The calculated 50% inhibition represents the inhibition at the highest concentration evaluated (10 μM) for a compound that exceeds the concentration in the evaluation range.
as §1
For orientation: An ELISA detects its analyte on a solid surface through an enzyme-linked reagent.

A further assay deals with T1, KRAS G12D (Homo sapiens, UniProt P01116, G12D).
T1 construct: host or cells: AsPC-1 (human pancreatic cancer line)
T1 sequence (P01116 1-188 isoform P01116-2 G12D): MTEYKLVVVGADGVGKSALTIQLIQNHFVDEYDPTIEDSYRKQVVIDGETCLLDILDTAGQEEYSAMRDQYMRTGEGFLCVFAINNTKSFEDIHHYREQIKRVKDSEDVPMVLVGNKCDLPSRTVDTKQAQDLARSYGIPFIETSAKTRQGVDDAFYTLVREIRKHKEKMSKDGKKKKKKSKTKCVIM
Kind of assay: KRAS degradation activity by Cell ELISA in AsPC-1 cells (Test Example 1). The following applies: Cell ELISA; for Dmax: ASPC1, overnight treatment, read-out: Dmax (degradation rate at the concentration showing highest degradation); for DC50: overnight treatment, read-out: DC50 (50% degradation concentration of KRAS). The method, then:
The KRAS degradation activity of test compounds was evaluated by measuring the expression levels of KRAS G12D by Cell ELISA.
AsPC-1 cells were seeded at 20 μL per well on 384-well plates (from Greiner bio-one) to give 2.0×10^4 cells per well. As for the cell culture conditions, RPMI 1640 (from Sigma-Aldrich) medium containing 10% fetal bovine serum (from Cytiva) was used in the presence of 5% CO2 at 37° C.
The next day, the test compounds (10 points having final concentrations in the range of 10 μM to 0.3 nM) and DMSO (from FUJIFILM Wako Pure Chemical Corporation), which was the solvent for the test compounds, as a negative control were diluted 500-fold with a fresh medium and were added at 20 μL per well. The cells were cultured overnight. The next day, the culture supernatant was removed, and 4% paraformaldehyde phosphate buffer (from FUJIFILM Wako Pure Chemical Corporation) was added at 20 μL per well. The plates were allowed to stand for 30 minutes at room temperature to thus immobilize the cells. Then, the supernatant was removed, and 0.1% Triton X-100 (from Amersham Biosciences)-containing Phosphate buffered saline (PBS; from FUJIFILM Wako Pure Chemical Corporation) was added at 20 μL per well. After allowing to stand for 10 minutes at room temperature, the supernatant was removed. PBS was added at 25 μL per well, and the supernatant was removed to thus wash each well. The washing was performed twice in total. Next, the supernatant was removed, and 0.5% sodium dodecyl sulfate (SDS; from Invitrogen)-containing PBS was added at 20 μL per well. After allowing to stand at room temperature for 10 minutes, the supernatant was removed by a centrifugal operation (using a centrifugal dehydrator machine, the supernatant was removed by the same method hereinafter). PBS was added at 25 μL per well, and the supernatant was removed to thus wash each well. The washing was performed twice in total. The supernatant was removed, and blocking solution (Intercept Blocking Buffer; from Li—COR Biosciences) was added at 20 μL per well. After allowing to stand for 30 minutes at room temperature, the supernatant was removed, and a solution obtained by diluting anti-β-actin antibody (Anti-beta Actin antibody [mAbcam 8226]-Loading Control; from abcam) 1,000-fold with blocking solution and a solution obtained by diluting anti-Ras (G12D Mutant Specific) antibody (Ras (G12D Mutant Specific) (D8H7) Rabbit mAb #14429; from Cell Signaling Technology) and anti-β-actin antibody (from abcam) 1,000-fold with blocking solution were respectively added to positive control wells and the other wells at 15 μL per well as a primary antibody. The plates were allowed to stand overnight at 4° C.
The next day, the supernatant was removed. PBS was added at 25 μL per well, and the supernatant was removed to thus wash each well. The washing was performed twice in total. The supernatant was removed, and a solution obtained by diluting Donkey anti-Mouse IgG H&L (IRDye 680RD) (from Li—COR Biosciences) and Goat anti-Rabbit IgG H&L (IRDye 800CW) (from Li—COR Biosciences) 1,000-fold with blocking solution was added at 15 μL per well as a secondary antibody. A solution obtained by diluting Donkey anti-Mouse IgG H&L (IRDye 680RD) (from Li—COR Biosciences) 1,000-fold with blocking solution was added to a positive control well as a secondary antibody. After allowing to stand for 1 hour at room temperature, the supernatant was removed. PBS was added at […], and the supernatant was removed to thus wash each well. The washing was performed twice in total. After removing the supernatant, the plates were dried with air at room temperature for 2 hours or more, and the 700 nm and 800 nm fluorescent signals were measured with Aerius (from Li—COR Biosciences). […]

As usually defined, the pIC50 is −log10 of the IC50, conventionally taken in molar units. Take `Cc1c(F)cc2[nH]ncc2c1-c1c(C2CC2)nc2c(N3C[C@@H]4C[C@H]3CN4)nc(OC3CCOCC3)nc2c1OCc1ccc(C(=O)N2CCN(Cc3ccc4c(c3)n(C)c(=O)n4C3CCC(=O)NC3=O)C[C@@H]2C)cc1` (stereo partly shown) [Example 48]: the pIC50 in assay [1] is 6.79.

For `Cc1c(F)cc2[nH]ncc2c1-c1c(C2CC2)cc2c(N3C[C@@H]4C[C@H]3CN4)nc(OC3CCOCC3)nc2c1OCc1ccc(C(=O)N2CCN(CCc3ccc4c(c3)c(N3CCC(=O)NC3=O)nn4C)C[C@@H]2C)cc1` (atropisomer, axis not shown) [Example 42], the pIC50 in assay [2] was 6.44; in assay [1] it was 6.40. Besides, the Dmax on KRAS G12D was 89%. Moreover, the DC50 on KRAS G12D stood at 0.294 µM.

As to `Cc1c(F)cc2[nH]ncc2c1-c1c(C2CC2)cc2c(N3C[C@@H]4C[C@H]3CN4)nc(OC3CCOCC3)nc2c1OCc1ccc(C(=O)N2CCN(Cc3cccc4c3oc(=O)n4C3CCC(=O)NC3=O)CC2)cc1` (stereo partly shown) [Example 6], in assay [2], the pIC50 was 5.40. The inhibition at 10 µM in assay [1] stood at 50%. On KRAS G12D, the Dmax was determined as 49% and the DC50 was 2.73 µM.

On to `Cc1c(F)cc2[nH]ncc2c1-c1c(C2CC2)cc2c(N3C[C@@H]4C[C@H]3CN4)nc(OC3CCOCC3)nc2c1OCc1ccc(C(=O)N2CCN(Cc3ccc4c(c3)n(C)c(=O)n4C3CCC(=O)NC3=O)C[C@H]2C)cc1` (stereo partly shown) [Example 9], for which the pIC50 in assay [2] was 7.16. In addition, the pIC50 in assay [1] was 7.05. Moreover, on KRAS G12D, the Dmax amounted to 65% and the DC50 came to 0.055 µM.

Take `Cc1c(F)cc2[nH]ncc2c1-c1c(C2CC2)cc2c(N3C[C@@H]4C[C@H]3CN4)nc(OC3CCOCC3)nc2c1OCc1ccc(C(=O)N2CCN(Cc3ccc4c(c3)n(C)c(=O)n4C3CCC(=O)NC3=O)CC2)cc1` (stereo partly shown) [Example 7]: the pIC50 is 7.22 in assay [2] and 7.14 in assay [1]. Further, the Dmax on KRAS G12D turned out to be 80%. The DC50 at KRAS G12D was found to be 0.035 µM.

On to `Cc1c(F)cc2[nH]ncc2c1-c1c(C2CC2)cc2c(N3C[C@@H]4C[C@H]3CN4)nc(OC3CCOCC3)nc2c1OCc1ccc(C(=O)N2CCN(Cc3ccc4c(c3)C(=O)N(C3CCC(=O)NC3=O)C4=O)CC2)cc1` (stereo partly shown) [Example 1], for which the negative logarithm of the IC50 (pIC50) in assay [2] is 5.47. For the same compound, the inhibition at 10 µM in assay [1] stood at 37%. Besides, at KRAS G12D, the Dmax is 59% and the DC50 is 1.95 µM.

Regarding `Cc1c(F)cc2[nH]ncc2c1-c1c(C2CC2)cc2c(N3C[C@@H]4C[C@H]3CN4)nc(OC3CCOCC3)nc2c1OCc1ccc(C(=O)N2C3CCC2CN(Cc2ccc4c(c2)C(=O)N(C2CCC(=O)NC2=O)C4=O)C3)cc1` (stereo partly drawn) [Example 5, 5-[(8-{4-[({(7M)-6-cyclopropyl-4-[(1S,4S)-2,5-diazabicyclo[2.2.1]heptan-2-yl]-7-(6-fluoro-5-methyl-1H-indazol-4-yl)-2-[(oxan-4-yl)oxy]quinazolin-8-yl}oxy)methyl]benzoyl}-3,8-diazabicyclo[3.2.1]octan-3-yl)methyl]-2-(2,6-dioxopiperidin-3-yl)-1H-isoindole-1,3(2H)-dione], the pIC50 in assay [2] is 6.48. Besides, the pIC50 in assay [1] is 6.31. At KRAS G12D, the Dmax came to 84% and the DC50 was 0.308 µM.

With `CO[C@@H](C)COc1nc(N2CCNCC2)c2cc(C3CC3)c(-c3c(C)c(F)cc4[nH]ncc34)c(OCc3ccc(C(=O)N4CCN(Cc5ccc6c(c5)n(C)c(=O)n6C5CCC(=O)NC5=O)C[C@@H]4C)cc3)c2n1` (stereo partly shown) [Example 45], the pIC50 in assay [1] was 6.79.

Consider `Cc1c(F)cc2[nH]ncc2c1-c1c(C2CC2)cc2c(N3C[C@@H]4C[C@H]3CN4)nc(OC3CCOCC3)nc2c1OCc1ccc(C(=O)N2CCN(Cc3ccc4c(c3)n(C)c(=O)n4N3CCC(=O)NC3=O)C[C@@H]2C)cc1` (atropisomer, axis not shown) [Example 47], for which the pIC50 in assay [1] is 6.35.

In the case of `Cc1c(F)cc2[nH]ncc2c1-c1c(C2CC2)cc2c(N3C[C@@H]4C[C@H]3CN4)nc(OC3CCOCC3)nc2c1OCc1ccc(C(=O)N2CCN(Cc3ccc4c(c3)cc(N3CCC(=O)NC3=O)c(=O)n4C)C[C@@H]2C)cc1` (atropisomer, axis not shown) [Example 46], in assay [1], the negative-log IC50 (pIC50) was 5.89.
